According to patent publication US20160151369A1, “SUBSTITUTED 3-PHENYLPROPYLAMINE DERIVATIVES FOR THE TREATMENT OF OPHTHALMIC DISEASES AND DISORDERS” (ACUCELA INC., priority 2013, published 2016):

Test system: isomerase (recovery of 11-cis-retinal after bleaching)
Assay: In vivo murine isomerase assay (Table 3)
Settings: Mus musculus, po, mice
Method: The capability of compounds described herein to inhibit isomerase was determined by an in vivo murine isomerase assay. […] The recovery of 11-cis-retinal after bleaching can be used to estimate the activity of isomerase in vivo. Delayed recovery, as represented by lower 11-cis-retinal oxime levels, indicates inhibition of isomerization reaction.
Mice were gavaged with the test compound. […] The mice were allowed to recover 2 hours in the dark. The animals were then sacrificed by carbon dioxide inhalation. Retinoids were extracted from the eye and the regeneration of 11-cis-retinal was assessed at various time intervals.
After the mice were sacrificed, the eyes were immediately removed and placed in liquid nitrogen for storage.
The eyes were placed in 500 μL of bis-tris propane buffer (10 mM, pH˜7.3) and 20 μL of 0.8M hydroxile amine (pH˜7.3). The eyes were cut up into small pieces with small iris scissors and then thoroughly homogenized at 30000 rpm with a mechanical homogenizer (Polytron PT 1300 D) in the tube until no visible tissue remained. 500 μL of methanol and 500 μL of heptane were added to each tube. The tubes were attached to a vortexer so that the contents were mixed thoroughly for 15 minutes in room temperature. The organic phase was separated from the aqueous phase by centrifugation for 10 min at 13K rpm, 4° C. 240 μL of the solution from the top layer (organic phase) was removed and transferred to clean 300 μl glass inserts in HPLC vials using glass pipette and the vials were crimped shut tightly.
The samples were analyzed on an Agilent 1100 HPLC system with normal phase column: SILICA (Beckman Coutlier, dp 5 μm, 4.6 mM×250 mM). […] Loading volume for each sample was 100 μl; detection wavelength was 360 nm. The area under the curve for 11-cis retinal oxime was calculated by Agilent Chemstation software and was recorded manually. Data processing was performed using Prizm software.
Positive control mice (no compound administered) were sacrificed fully dark-adapted and the eye retinoids analyzed. Light (bleached) control mice (no compound administered) were sacrificed and retinoids isolated and analyzed immediately after light treatment.
A time course study was performed to determine the isomerase inhibitory activity of the test compound. […] The animals were then “photo-bleached” (5000 Lux white light for 10 minutes) at 2, 4, 8, 16 and 24 hours after dosing, and returned to darkness to allow recovery of the 11-cis-retinal content of the eyes. Mice were sacrificed 2 hours after bleaching, eyes were enucleated, and retinoid content is analyzed by HPLC.
Recovery control mice (vehicle-only treated) were light-treated and left to recover for 2 hours in the dark before sacrifice and analysis. Light control mice (vehicle only treated) were sacrificed for analysis immediately after photo-bleaching.
An in vivo dose response isomerase inhibition study was performed with test compound. […] Recovery and retinoid analysis were performed as described above. Dark control mice were vehicle-only treated, sacrificed fully dark adapted without light treatment, and analyzed. Recovery control mice and light control mice were included in the study as per the initial phase.

Row | SMILES | inhibition at 1 mg/kg (2 h) | inhibition at 1 mg/kg (4 h) | other results
1 | NCC[C@@H](O)c1cccc(OCC2CCCOC2)c1 (mixture of isomers) [Example 3, (1R)-3-Amino-1-(3-((tetrahydro-2H-pyran-3-yl)methoxy)phenyl)propan-1-ol] | 98.7% | 94.2% | inhibition at 0.01 mg/kg (2 h): 1.2%; inhibition at 0.03 mg/kg (2 h): 2.7%; inhibition at 0.1 mg/kg (2 h): 4.2%; inhibition at 0.3 mg/kg (2 h): 75.2%; inhibition at 3 mg/kg (2 h): 102%; inhibition at 0.3 mg/kg (4 h): 59.7%; inhibition at 0.3 mg/kg (8 h): 14.8%; inhibition at 0.3 mg/kg (16 h): 1.6%; inhibition at 0.3 mg/kg (24 h): 4.1%
2 | NCC[C@@H](O)c1cccc(OCC2CCCSC2)c1 (mixture of isomers) [Example 7, (1R)-3-Amino-1-(3-((tetrahydro-2H-thiopyran-3-yl)methoxy)phenyl)propan-1-ol] | 60.5% | 68% | inhibition at 1 mg/kg (8 h): 40.3%
3 | NCC[C@@H](O)c1cccc(OCC2CCCS(=O)(=O)C2)c1 (mixture of isomers) [Example 10, 3-((3-((R)-3-Amino-1-hydroxypropyl)phenoxy)methyl)tetrahydro-2H-thiopyran 1,1-dioxide] |  | -7.6% | 
4 | NCC[C@@H](O)c1cccc(OCC2Cc3ccccc3O2)c1 (mixture of isomers) [Example 13, (1R)-3-Amino-1-(3-((2,3-dihydrobenzofuran-2-yl)methoxy)phenyl)propan-1-ol] | 62.1% |  | 
5 | NCC[C@@H](O)c1cccc(OCC2CCCO2)c1 (mixture of isomers) [Example 14, (1R)-3-Amino-1-(3-((tetrahydrofuran-2-yl)methoxy)phenyl)propan-1-ol] | 79.2% | 59.8% | inhibition at 1 mg/kg (8 h): 0.8%
6 | NCC[C@@H](O)c1cccc(OCC2COc3ccccc3C2)c1 (mixture of isomers) [Example 19, (1R)-3-Amino-1-(3-(chroman-3-ylmethoxy)phenyl)propan-1-ol] |  | 91.4% | inhibition at 0.3 mg/kg (2 h): 49.4%; inhibition at 0.3 mg/kg (4 h): 40%; inhibition at 0.3 mg/kg (8 h): 15.5%
7 | NCCC(O)c1cccc(OCC2CCOCC2)c1 (centres unmarked) [Example 2, 3-Amino-1-(3-((tetrahydro-2H-pyran-4-yl)methoxy)phenyl)propan-1-ol] |  | 89.9% | 
8 | NCC[C@@H](O)c1cccc(OCc2ccncc2)c1 [Example 4, (R)-3-amino-1-(3-(pyridin-4-ylmethoxy)phenyl)propan-1-ol] |  | -8.7% | 
9 | NCC[C@@H](O)c1cccc(OCc2cccnc2)c1 [Example 5, (R)-3-Amino-1-(3-(pyridin-3-ylmethoxy)phenyl)propan-1-ol] |  | 3.1% | 
10 | NCC[C@@H](O)c1cccc(OCC2CCSCC2)c1 [Example 8, (R)-3-Amino-1-(3-((tetrahydro-2H-thiopyran-4-yl)methoxy)phenyl)propan-1-ol] |  | 33.2% | 
11 | NCC[C@@H](O)c1cccc(OCC2CCS(=O)(=O)CC2)c1 [Example 9, (R)-4-((3-(3-Amino-1-hydroxypropyl)phenoxy)methyl)tetrahydro-2H-thiopyran 1,1-dioxide] |  | -8.2% | 
12 | CC(=O)N1CCC(COc2cccc([C@H](O)CCN)c2)CC1 [Example 11, (R)-1-(4-((3-(3-Amino-1-hydroxypropyl)phenoxy)methyl)piperidin-1-yl)ethanone] | -4.7% | 2.6% | inhibition at 1 mg/kg (8 h): -3.8%
13 | Cc1cccc(COc2cccc([C@H](O)CCN)c2)n1 [Example 12, (R)-3-Amino-1-(3-((6-methylpyridin-2-yl)methoxy)phenyl)propan-1-ol] |  | 11.2% | 
14 | COC(=O)N1CCC(COc2cccc([C@H](O)CCN)c2)CC1 [Example 17, (R)-Methyl 4-((3-(3-amino-1-hydroxypropyl)phenoxy)methyl)piperidine-1-carboxylate] | 93% | 88% | inhibition at 0.01 mg/kg (2 h): 0%; inhibition at 0.03 mg/kg (2 h): -2%; inhibition at 0.1 mg/kg (2 h): 9%; inhibition at 0.3 mg/kg (2 h): 8%; inhibition at 3 mg/kg (2 h): 100%; inhibition at 1 mg/kg (8 h): 25%; inhibition at 1 mg/kg (16 h): -1%; inhibition at 1 mg/kg (24 h): -8%
15 | NCC[C@@H](O)c1cccc(NCC2CCOCC2)c1 [Example 23, (R)-3-Amino-1-(3-(((tetrahydro-2H-pyran-4-yl)methyl)amino)phenyl)propan-1-ol] | 4.4% | -1.4% | inhibition at 1 mg/kg (8 h): 1.5%
16 | NCC[C@@H](O)c1cccc(OCC2CCCC(=O)N2)c1 (some centres unmarked) [Example 27] |  | 9% | 
17 | NCC[C@@H](O)c1cccc(OCc2cccs2)c1 [Example 28, (R)-3-Amino-1-(3-(thiophen-2-ylmethoxy)phenyl)propan-1-ol] |  | 50.6% | 
18 | NCC[C@@H](O)c1cccc(OCc2ccsc2)c1 [Example 29, (R)-3-Amino-1-(3-(thiophen-3-ylmethoxy)phenyl)propan-1-ol] |  | 27.4% | 
19 | NC/C=C/c1cccc(OCC2CCOCC2)c1 [Example 31, (E)-3-(3-((Tetrahydro-2H-pyran-4-yl)methoxy)phenyl)prop-2-en-1-amine] | 11.3% |  | 
20 | NCCCc1cccc(OCC2CCOCC2)c1 [Example 32, 3-(3-((Tetrahydro-2H-pyran-4-yl)methoxy)phenyl)propan-1-amine] | 14.2% |  | 
21 | CNCC[C@@H](O)c1cccc(OCC2CCOCC2)c1 [Example 33, (R)-3-(Methylamino)-1-(3-((tetrahydro-2H-pyran-4-yl)methoxy)phenyl)propan-1-ol] | 65.2% | 54.5% | inhibition at 1 mg/kg (8 h): 10.9%; inhibition at 1 mg/kg (16 h): -0.8%; inhibition at 1 mg/kg (24 h): 1.8%
22 | NCC[C@@H](O)c1cccc(NCC2CCCCC2)c1 [reference compound] |  | 96% | 
